Results as given in US10040781B2, “Tank-binding kinase inhibitor compounds” (Gilead Sciences, Inc., priority 2014, dated 2018).

Experiments:
hJAK2 = hJAK2 (Homo sapiens (Human), UniProt O60674); test: hJAK2 LANCE TR-FRET enzymatic assay; assay type: biochemical; settings: read-out: JAK2 IC50
TBK1 = TBK1 (Homo sapiens (Human), UniProt Q9UHD2); test: TBK1 TR-FRET enzymatic assay;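 also: phosphorylation of a biotinylated Ser/Thr peptide by purified full-length recombinant TBK1, read by TR-FRET after 240 min at 25 °C, IC50 is the geometric mean of at least four runs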
Sequence of TBK1 (Q9UHD2 whole entry): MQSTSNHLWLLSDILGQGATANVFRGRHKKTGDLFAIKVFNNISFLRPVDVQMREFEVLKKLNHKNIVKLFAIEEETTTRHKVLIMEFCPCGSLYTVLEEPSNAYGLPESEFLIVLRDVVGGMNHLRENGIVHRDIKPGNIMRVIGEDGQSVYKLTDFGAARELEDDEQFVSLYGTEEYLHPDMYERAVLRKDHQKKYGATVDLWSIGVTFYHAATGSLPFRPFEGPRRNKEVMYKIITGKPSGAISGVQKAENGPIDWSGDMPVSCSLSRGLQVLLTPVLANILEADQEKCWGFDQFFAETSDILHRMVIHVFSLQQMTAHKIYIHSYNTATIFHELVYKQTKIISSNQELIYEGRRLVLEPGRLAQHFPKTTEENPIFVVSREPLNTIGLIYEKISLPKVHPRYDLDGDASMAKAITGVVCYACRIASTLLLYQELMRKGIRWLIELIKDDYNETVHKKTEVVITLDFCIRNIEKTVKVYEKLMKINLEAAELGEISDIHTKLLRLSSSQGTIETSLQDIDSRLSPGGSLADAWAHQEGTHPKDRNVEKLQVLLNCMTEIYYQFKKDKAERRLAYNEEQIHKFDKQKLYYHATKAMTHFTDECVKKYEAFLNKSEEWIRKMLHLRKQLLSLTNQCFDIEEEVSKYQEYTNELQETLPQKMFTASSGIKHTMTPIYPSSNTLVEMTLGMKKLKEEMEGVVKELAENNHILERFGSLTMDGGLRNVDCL

IKKε = IKKε (Homo sapiens (Human), UniProt Q14164); test: IKKε TR-FRET enzymatic assay; assay type: biochemical; settings: read-out: IKKe IC50
Sequence of IKKε (Q14164 whole entry): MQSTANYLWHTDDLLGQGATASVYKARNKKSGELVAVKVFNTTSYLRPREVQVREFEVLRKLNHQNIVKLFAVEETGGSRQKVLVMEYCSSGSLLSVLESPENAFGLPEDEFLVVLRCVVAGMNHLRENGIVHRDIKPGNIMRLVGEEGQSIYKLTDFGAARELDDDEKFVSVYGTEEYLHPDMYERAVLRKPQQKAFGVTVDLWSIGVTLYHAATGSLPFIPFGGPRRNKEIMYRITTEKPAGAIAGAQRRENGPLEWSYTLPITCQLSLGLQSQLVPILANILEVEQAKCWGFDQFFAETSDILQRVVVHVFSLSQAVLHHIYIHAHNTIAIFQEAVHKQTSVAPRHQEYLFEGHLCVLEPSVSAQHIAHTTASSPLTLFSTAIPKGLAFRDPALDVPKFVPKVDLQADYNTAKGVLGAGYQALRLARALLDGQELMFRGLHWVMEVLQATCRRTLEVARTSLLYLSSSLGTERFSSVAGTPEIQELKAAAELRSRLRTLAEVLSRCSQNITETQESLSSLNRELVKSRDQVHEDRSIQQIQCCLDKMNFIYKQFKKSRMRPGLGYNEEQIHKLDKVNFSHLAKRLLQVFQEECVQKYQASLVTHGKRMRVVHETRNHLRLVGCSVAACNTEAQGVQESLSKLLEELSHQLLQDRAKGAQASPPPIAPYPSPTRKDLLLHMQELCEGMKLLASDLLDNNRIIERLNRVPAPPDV

Sequence of hJAK2 (O60674 whole entry): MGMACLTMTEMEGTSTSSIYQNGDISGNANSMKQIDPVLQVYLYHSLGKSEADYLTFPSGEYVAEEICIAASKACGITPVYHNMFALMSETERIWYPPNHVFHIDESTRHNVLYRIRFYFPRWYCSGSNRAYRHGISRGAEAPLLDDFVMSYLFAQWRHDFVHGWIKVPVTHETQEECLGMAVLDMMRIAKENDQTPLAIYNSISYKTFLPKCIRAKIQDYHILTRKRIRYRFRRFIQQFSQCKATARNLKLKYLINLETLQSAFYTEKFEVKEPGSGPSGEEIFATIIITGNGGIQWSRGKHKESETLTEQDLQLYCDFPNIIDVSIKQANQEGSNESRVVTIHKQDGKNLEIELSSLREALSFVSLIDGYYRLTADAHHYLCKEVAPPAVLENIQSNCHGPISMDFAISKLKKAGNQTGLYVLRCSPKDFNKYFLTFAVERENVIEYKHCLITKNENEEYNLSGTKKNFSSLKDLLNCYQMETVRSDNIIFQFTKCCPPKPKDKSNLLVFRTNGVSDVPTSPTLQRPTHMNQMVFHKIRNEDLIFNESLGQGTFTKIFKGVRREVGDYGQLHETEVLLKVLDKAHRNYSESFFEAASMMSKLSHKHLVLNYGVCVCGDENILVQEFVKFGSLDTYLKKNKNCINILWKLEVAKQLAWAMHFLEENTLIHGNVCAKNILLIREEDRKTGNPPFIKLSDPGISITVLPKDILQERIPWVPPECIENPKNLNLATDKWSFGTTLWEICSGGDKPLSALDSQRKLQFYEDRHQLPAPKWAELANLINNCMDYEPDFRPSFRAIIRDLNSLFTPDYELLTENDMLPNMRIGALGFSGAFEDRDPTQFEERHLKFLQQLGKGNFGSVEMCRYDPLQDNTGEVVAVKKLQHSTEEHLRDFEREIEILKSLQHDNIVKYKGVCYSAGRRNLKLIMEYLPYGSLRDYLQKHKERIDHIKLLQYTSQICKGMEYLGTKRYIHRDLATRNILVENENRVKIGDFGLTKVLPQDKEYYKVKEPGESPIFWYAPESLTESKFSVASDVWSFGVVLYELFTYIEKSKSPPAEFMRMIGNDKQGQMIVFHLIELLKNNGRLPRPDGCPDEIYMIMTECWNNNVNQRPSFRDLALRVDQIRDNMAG

IC50 (hJAK2) | IC50 (TBK1) | IC50 (IKKε) | Structure (SMILES)
> 1 µM | 0.006 µM | 0.017 µM | COc1cccc(Nc2ncnc(-c3ccc(OC4CCOCC4)c(C#N)c3)n2)c1 [Example 78, 5-(4-((3-methoxyphenyl)amino)-1,3,5-triazin-2-yl)-2-((tetrahydro-2H-pyran-4-yl)oxy)benzonitrile]
> 1 µM | 0.008 µM | 0.019 µM | N#Cc1cc(-c2ncnc(Nc3ccccc3)n2)ccc1OC1CCOCC1 [Example 79, 5-(4-(phenylamino)-1,3,5-triazin-2-yl)-2-((tetrahydro-2H-pyran-4-yl)oxy)benzonitrile]
0.389 µM | 0.019 µM | 0.037 µM | N#Cc1cc(-c2ncnc(Nc3ccc(N4CCOCC4)cc3)n2)ccc1O[C@@H]1CCNC1 [Example 80]
0.641 µM | 0.094 µM | 0.053 µM | N#Cc1cc(-c2ncnc(Nc3cccc(N4CCOCC4)c3)n2)ccc1O[C@@H]1CCNC1 [Example 82, (R)-5-(4-((3-morpholinophenyl)amino)-1,3,5-triazin-2-yl)-2-(pyrrolidin-3-yloxy)benzonitrile]
0.604 µM | 0.008 µM | 0.014 µM | CC(C)NC(=O)c1ccc(Nc2ncnc(-c3ccc(O[C@@H]4CCN(C(=O)CO)C4)c(C#N)c3)n2)cc1 [Example 83, (R)-4-((4-(3-cyano-4-((1-(2-hydroxyacetyl)pyrrolidin-3-yl)oxy)phenyl)-1,3,5-triazin-2-yl)amino)-N-isopropylbenzamide]
0.805 µM | 0.072 µM | 0.166 µM | CC(C)NC(=O)c1ccc(Nc2ncnc(-c3ccc(O[C@@H]4CCNC4)c(C#N)c3)n2)cc1 [Example 84, (R)-4-((4-(3-cyano-4-(pyrrolidin-3-yloxy)phenyl)-1,3,5-triazin-2-yl)amino)-N-isopropylbenzamide]
0.459 µM | 0.008 µM | 0.004 µM | CN1CCN(c2ccc(Nc3ncnc(-c4ccc(O[C@@H]5CCN(C(=O)CO)C5)c(C#N)c4)n3)cc2)CC1 [Example 86, (R)-2-((1-(2-hydroxyacetyl)pyrrolidin-3-yl)oxy)-5-(4-((4-(4-methylpiperazin-1-yl)phenyl)amino)-1,3,5-triazin-2-yl)benzonitrile]
> 1 µM | 0.853 µM | > 1 µM | N#Cc1cc(-c2ncnc(Nc3ccc(N4CCN(C5COC5)CC4)cc3)n2)ccc1F [Example 87, 2-Fluoro-5-(4-((4-(4-(oxetan-3-yl)piperazin-1-yl)phenyl)amino)-1,3,5-triazin-2-yl)benzonitrile]
0.359 µM | 0.016 µM | 0.052 µM | N#Cc1cc(-c2ncnc(Nc3ccc(N4CCN(C5COC5)CC4)cc3)n2)ccc1O[C@@H]1CCN(C(=O)CCO)C1 [Example 89, (R)-2-((1-(3-hydroxypropanoyl)pyrrolidin-3-yl)oxy)-5-(4-((4-(4-(oxetan-3-yl)piperazin-1-yl)phenyl)amino)-1,3,5-triazin-2-yl)benzonitrile]
0.292 µM | 0.007 µM | 0.037 µM | N#CCC(=O)N1CC[C@@H](Oc2ccc(-c3ncnc(Nc4ccc(N5CCN(C6COC6)CC5)cc4)n3)cc2C#N)C1 [Example 90, (R)-2-((1-(2-cyanoacetyl)pyrrolidin-3-yl)oxy)-5-(4-((4-(4-(oxetan-3-yl)piperazin-1-yl)phenyl)amino)-1,3,5-triazin-2-yl)benzonitrile]
> 1 µM | 0.045 µM | 0.197 µM | N#Cc1cc(-c2ncnc(Nc3ccc(N4CCN(C5COC5)CC4)cc3)n2)ccc1O[C@@H]1CCN(C(=O)C2COC2)C1 [Example 92, (R)-5-(4-((4-(4-(oxetan-3-yl)piperazin-1-yl)phenyl)amino)-1,3,5-triazin-2-yl)-2-((1-(oxetane-3-carbonyl)pyrrolidin-3-yl)oxy)benzonitrile]
0.961 µM | 0.03 µM | 0.12 µM | N#Cc1cc(-c2ncnc(Nc3ccc(N4CCN(C5COC5)CC4)cc3)n2)ccc1O[C@@H]1CCNC1 [Example 93, (R)-5-(4-((4-(4-(oxetan-3-yl)piperazin-1-yl)phenyl)amino)-1,3,5-triazin-2-yl)-2-(pyrrolidin-3-yloxy)benzonitrile]
> 1 µM | 0.173 µM | 0.367 µM | N#Cc1cc(-c2ncnc(Nc3ccc(N4CCN(C5COC5)CC4)cc3)n2)ccc1O[C@@H]1CCN(C(=O)C2(O)CC2)C1 [Example 94, (R)-2-((1-(1-hydroxycyclopropanecarbonyl)pyrrolidin-3-yl)oxy)-5-(4-((4-(4-(oxetan-3-yl)piperazin-1-yl)phenyl)amino)-1,3,5-triazin-2-yl)benzonitrile]
0.56 µM | 0.021 µM | 0.091 µM | N#Cc1cc(-c2ncnc(Nc3ccc(N4CCN(C5COC5)CC4)cc3)n2)ccc1O[C@@H]1CCN(C(=O)C(F)F)C1 [Example 96, (R)-2-((1-(2,2-difluoroacetyl)pyrrolidin-3-yl)oxy)-5-(4-((4-(4-(oxetan-3-yl)piperazin-1-yl)phenyl)amino)-1,3,5-triazin-2-yl)benzonitrile]
0.241 µM | 0.011 µM | 0.022 µM | N#Cc1cc(-c2ncnc(Nc3ccc(N4CCN(C5COC5)CC4)cc3)n2)ccc1OC1CCCN(C(=O)CO)CC1 (stereo not drawn) [Example 97, 2-((1-(2-hydroxyacetyl)azepan-4-yl)oxy)-5-(4-((4-(4-(oxetan-3-yl)piperazin-1-yl)phenyl)amino)-1,3,5-triazin-2-yl)benzonitrile]
0.119 µM | 0.005 µM | 0.014 µM | N#Cc1cc(-c2ncnc(Nc3ccc(N4CCN(C5COC5)CC4)cc3)n2)ccc1OC1CN(C(=O)CO)CC1(F)F (stereo not drawn) [Example 98, 2-((4,4-difluoro-1-(2-hydroxyacetyl)pyrrolidin-3-yl)oxy)-5-(4-((4-(4-(oxetan-3-yl)piperazin-1-yl)phenyl)amino)-1,3,5-triazin-2-yl)benzonitrile]
0.44 µM | 0.077 µM | 0.193 µM | C[C@@H]1C[C@@H](Oc2ccc(-c3ncnc(Nc4ccc(N5CCN(C6COC6)CC5)cc4)n3)cc2C#N)CN1C(=O)CO [Example 99, 2-(((3R,5R)-1-(2-hydroxyacetyl)-5-methylpyrrolidin-3-yl)oxy)-5-(4-((4-(4-(oxetan-3-yl)piperazin-1-yl)phenyl)amino)-1,3,5-triazin-2-yl)benzonitrile]
0.525 µM | 0.121 µM | 0.249 µM | C[C@H]1C[C@@H](Oc2ccc(-c3ncnc(Nc4ccc(N5CCN(C6COC6)CC5)cc4)n3)cc2C#N)CN1C(=O)CO [Example 100, 2-(((3R,5S)-1-(2-hydroxyacetyl)-5-methylpyrrolidin-3-yl)oxy)-5-(4-((4-(4-(oxetan-3-yl)piperazin-1-yl)phenyl)amino)-1,3,5-triazin-2-yl)benzonitrile]
0.38 µM | 0.011 µM | 0.024 µM | N#Cc1cc(-c2ncnc(Nc3ccc(N4CCN(C5COC5)CC4)cc3)n2)ccc1O[C@H]1C[C@@H]2C[C@H]1N(C(=O)CO)C2 [Example 102, 2-(((1R,4S,6S)-2-(2-hydroxyacetyl)-2-azabicyclo[2.2.1]heptan-6-yl)oxy)-5-(4-((4-(4-(oxetan-3-yl)piperazin-1-yl)phenyl)amino)-1,3,5-triazin-2-yl)benzonitrile]
0.26 µM | 0.006 µM | 0.01 µM | N#Cc1cc(-c2ncnc(Nc3ccc(N4CCOCC4)cc3)n2)ccc1O[C@@H]1CCN(C(=O)CO)C1 [Example 103, (R)-2-((1-(2-hydroxyacetyl)pyrrolidin-3-yl)oxy)-5-(4-((4-morpholinophenyl)amino)-1,3,5-triazin-2-yl)benzonitrile]
0.328 µM | 0.042 µM | 0.215 µM | COc1ccc(-c2ncnc(Nc3ccc(N4CCN(C5COC5)CC4)cc3)n2)cc1C#N [Example 104, 2-methoxy-5-(4-((4-(4-(oxetan-3-yl)piperazin-1-yl)phenyl)amino)-1,3,5-triazin-2-yl)benzonitrile]
0.212 µM | 0.079 µM | > 1 µM | COc1cc(C#N)cc(-c2ncnc(Nc3ccc(N4CCN(C5COC5)CC4)cc3)n2)c1 [Example 105, 3-methoxy-5-(4-((4-(4-(oxetan-3-yl)piperazin-1-yl)phenyl)amino)-1,3,5-triazin-2-yl)benzonitrile]
> 1 µM | 0.005 µM | 0.004 µM | N#Cc1cc(-c2ncnc(Nc3ccc(Cn4ccnc4)cc3)n2)ccc1OC1CCOCC1 [Example 106, 5-(4-((4-((1H-imidazol-1-yl)methyl)phenyl)amino)-1,3,5-triazin-2-yl)-2-((tetrahydro-2H-pyran-4-yl)oxy)benzonitrile]
> 1 µM | 0.003 µM | 0.006 µM | CC1(O)CCN(c2ccc(Nc3ncnc(-c4ccc(OC5CCOCC5)c(C#N)c4)n3)cc2)C1 (stereo not drawn) [Example 108, 5-(4-((4-(3-hydroxy-3-methylpyrrolidin-1-yl)phenyl)amino)-1,3,5-triazin-2-yl)-2-((tetrahydro-2H-pyran-4-yl)oxy)benzonitrile]
> 1 µM | 0.076 µM | 0.161 µM | Cc1cc(N2CCOCC2)ccc1Nc1ncnc(-c2ccc(OC3CCOCC3)c(C#N)c2)n1 [Example 109, 5-(4-((2-methyl-4-morpholinophenyl)amino)-1,3,5-triazin-2-yl)-2-((tetrahydro-2H-pyran-4-yl)oxy)benzonitrile]
0.74 µM | 0.243 µM | 0.33 µM | N#Cc1cc(-c2ncnc(Nc3ccc(N4CCN(C5COC5)CC4)cc3)n2)ccc1O[C@H]1CCN(C2CCOC2)C[C@H]1F (stereo partly drawn) [Example 110, 2-(((3R,4S)-3-fluoro-1-(tetrahydrofuran-3-yl)piperidin-4-yl)oxy)-5-(4-((4-(4-(oxetan-3-yl)piperazin-1-yl)phenyl)amino)-1,3,5-triazin-2-yl)benzonitrile]

Structure (SMILES) | IC50 (hJAK2) | IC50 (TBK1) | IC50 (IKKε)
N#Cc1cc(-c2ncnc(Nc3ccc(N4CCN(C5COC5)CC4)cc3)n2)ccc1O[C@@H]1CCN(C=O)C1 [Example 95, (R)-2-((1-formylpyrrolidin-3-yl)oxy)-5-(4-((4-(4-(oxetan-3-yl)piperazin-1-yl)phenyl)amino)-1,3,5-triazin-2-yl)benzonitrile] | 0.377 µM | 0.007 µM | 0.021 µM
